Consider one compound from patent US20250115597A1, “TYK2 INHIBITORS AND COMPOSITIONS AND METHODS THEREOF” (LYNK PHARMACEUTICALS CO. LTD., priority 2021, published 2025).

A word on the IC50: it is the point on the concentration scale where inhibition reaches its midpoint.

For data set [1], the target named is T1, Ba/F3-FL-TYK2-P760L cells (Homo sapiens, UniProt P29597, P760L, cells depend on it).
T1 construct: BaF3-FL-T2P760L (nM)
In words: Anti-proliferative assay, Ba/F3-FL-TYK2-P760L cells (Cell-Titer Glo). The class given is cell-based. To be noted: 72 h, read-out: BaF3-FL-T2P760L IC50. In outline: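 Ba/F3 cells made IL-3-independent by TEL-fused or full-length mutant JAK-family kinases, seeded at 2000/well and dosed after 24 h with 9 three-fold dilutions topping at 20 μM. Viability after 72 h at 37 °C, 5% CO2 by Cell-Titer Glo ATP luminescence.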

In data set [2] the test system is pSTAT1. Kind of data set: Phosphorylation inhibition of STAT in human PBMC, IFN-alpha stimulated (flow cytometry). The class given is cell-based. Conditions: 20 min; human PBMC, IFN-alpha 20 mins, CD3 cells; read-out: IC50 on pSTAT1 inhibition in hPBMC. As for the experimental part:
Phosphorylation Inhibition of STAT in Human PBMC and Human Whole Blood Testing:
The inhibitory potential of test articles in human PBMC and human whole blood assay was evaluated by the method of flow cytometry.
IFN-alpha will activate JAK1 and TYK2 kinase in T cells by binding to IFN receptors, and then lead to phosphorylation of STAT1 and STAT2. The phosphorylated STAT1 enter nuclear and promote transcription and expression of IFN-gamma. To evaluate the efficacy of TYK2i in T cells, freshly prepared human PBMC or freshly collected human whole blood will be stimulated with certain unit of human IFN-alpha (Universal Type I IFN(1MU), R&D, 11200-2) for 20 mins in incubator. After stimulation, fix cells with Phosflow™ Fix Buffer I (BD, 557870), and then collect fixed cells by centrifugation (500 g, 8 min). Wash cells once with pre-cooled PBS, and then permeabilize cells with cold Perm Buffer III buffer (BD, 558050) for 45 mins on ice. Collect cells by centrifugation (600 g, 8 min) and washed twice with cold PBS. Stain cells with anti-human CD3 (FITC Mouse Anti-Human CD3, BD, 555332) and anti-pSTAT1_Y701(Alexa Fluor 647 Mouse Anti-Stat1 (pY701), BD, 612597) antibodies. Detect pSTAT1 by flow cytometry (CytoFlex S) and analyze data with FlowJo and GraphPad Prism 8 software. IC50 values of test articles were determined using 4-parameter logistic equation.

Data set [3] in a line: Plasma protein binding by equilibrium dialysis. The class given is in vitro ADME. To be noted: human plasma, equilibrium dialysis 5 hours at 37° C.; read-out: % Bound (human) (converted). In outline:
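Compound spiked into plasma at 0.2 and 2 μM was dialyzed against PBS for 5 h at 37° C with shaking, in duplicate. Plasma and buffer chambers were matrix-matched, protein-precipitated and analysed by LC-MS/MS to derive % unbound, % bound and % recovery.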

For data set [4], the target named is T2, JAK2 (Homo sapiens, UniProt O60674).
T2 construct: purchased Carna Biosciences
Kind of data set: JAK2 kinase activity, microfluidic assay (Caliper EZ Reader II). Format: biochemical. Conditions: JAK2 0.125 nM, 1 mM ATP. The gist of the method:
(§1)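 Human JAK1, JAK2 or TYK2 enzyme was used in 50 mM HEPES, 10 mM MgCl2, 2 mM DTT and 0.01% Brij35, tuned to 10% conversion of a FAM-labelled peptide. Threefold dilutions of compound (top 5 µM, 1% DMSO) were pre-incubated with enzyme for 10 min, and reactions were stopped with EDTA. Phosphorylation was read by microfluidic mobility shift, and IC50 came from percent-inhibition curves.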

Data set [5] deals with T3, TYK2 (Homo sapiens, UniProt P29597).
T3 construct: purchased Carna Biosciences
Kind of data set: TYK2 kinase activity, microfluidic assay (Caliper EZ Reader II). Conditions: TYK2 1 nM, 1 mM ATP. Format: biochemical. The gist of the method: as §1

Data set [6] concerns the target T4, JAK1 (Homo sapiens, UniProt P23458).
T4 construct: purchased Carna Biosciences
Kind of data set: JAK1 kinase activity, microfluidic assay (Caliper EZ Reader II). The class given is biochemical. To be noted: JAK1 5 nM, 1 mM ATP. The gist of the method: as §1

In data set [7] the test system is pSTAT1. In words: Phosphorylation inhibition of STAT in human whole blood, IFN-alpha stimulated (flow cytometry). The class given is cell-based. Conditions: 20 min; human whole blood, IFN-alpha 20 mins, CD3 cells; read-out: IC50 on pSTAT1 inhibition in h WB. In outline:
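Freshly prepared PBMC or freshly collected whole blood stimulated with human Universal Type I IFN-alpha for 20 min, then fixed, permeabilized on ice and stained for CD3 and pSTAT1 (Y701). pSTAT1 read by flow cytometry; IC50 from 4-parameter logistic fit.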
(In general: Flow cytometry measures light scatter and fluorescence of single cells or particles in a stream.)

T2 sequence (O60674 whole entry): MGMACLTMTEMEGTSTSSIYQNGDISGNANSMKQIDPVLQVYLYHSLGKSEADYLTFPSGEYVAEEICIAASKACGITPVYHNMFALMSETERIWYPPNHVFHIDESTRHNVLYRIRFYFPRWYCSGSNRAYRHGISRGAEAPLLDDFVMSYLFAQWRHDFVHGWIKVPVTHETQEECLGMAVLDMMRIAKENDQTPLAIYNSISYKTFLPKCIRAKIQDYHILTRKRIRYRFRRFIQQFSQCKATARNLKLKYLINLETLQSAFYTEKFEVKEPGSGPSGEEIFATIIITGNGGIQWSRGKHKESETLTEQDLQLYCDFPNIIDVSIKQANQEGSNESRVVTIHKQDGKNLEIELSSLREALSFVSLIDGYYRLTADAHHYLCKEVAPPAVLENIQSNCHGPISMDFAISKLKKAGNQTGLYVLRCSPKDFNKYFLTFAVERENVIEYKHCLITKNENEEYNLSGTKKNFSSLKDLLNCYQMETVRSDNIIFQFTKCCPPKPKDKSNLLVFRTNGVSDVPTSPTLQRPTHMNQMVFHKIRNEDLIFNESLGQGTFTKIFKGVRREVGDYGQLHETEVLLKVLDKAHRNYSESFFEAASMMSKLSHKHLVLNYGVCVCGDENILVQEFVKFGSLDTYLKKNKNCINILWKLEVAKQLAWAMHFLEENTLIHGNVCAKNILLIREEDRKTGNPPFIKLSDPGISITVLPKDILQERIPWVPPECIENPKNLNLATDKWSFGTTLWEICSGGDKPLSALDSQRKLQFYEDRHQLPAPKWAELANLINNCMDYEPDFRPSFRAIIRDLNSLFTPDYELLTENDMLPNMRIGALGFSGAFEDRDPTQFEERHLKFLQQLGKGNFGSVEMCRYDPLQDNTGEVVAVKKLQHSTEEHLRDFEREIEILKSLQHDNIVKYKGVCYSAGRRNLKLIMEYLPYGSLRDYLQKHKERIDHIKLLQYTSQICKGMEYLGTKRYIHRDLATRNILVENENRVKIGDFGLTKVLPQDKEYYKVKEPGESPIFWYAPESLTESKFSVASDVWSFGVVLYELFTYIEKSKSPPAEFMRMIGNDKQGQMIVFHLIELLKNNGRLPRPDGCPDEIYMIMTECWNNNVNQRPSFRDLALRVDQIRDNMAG
T3 sequence (P29597 whole entry): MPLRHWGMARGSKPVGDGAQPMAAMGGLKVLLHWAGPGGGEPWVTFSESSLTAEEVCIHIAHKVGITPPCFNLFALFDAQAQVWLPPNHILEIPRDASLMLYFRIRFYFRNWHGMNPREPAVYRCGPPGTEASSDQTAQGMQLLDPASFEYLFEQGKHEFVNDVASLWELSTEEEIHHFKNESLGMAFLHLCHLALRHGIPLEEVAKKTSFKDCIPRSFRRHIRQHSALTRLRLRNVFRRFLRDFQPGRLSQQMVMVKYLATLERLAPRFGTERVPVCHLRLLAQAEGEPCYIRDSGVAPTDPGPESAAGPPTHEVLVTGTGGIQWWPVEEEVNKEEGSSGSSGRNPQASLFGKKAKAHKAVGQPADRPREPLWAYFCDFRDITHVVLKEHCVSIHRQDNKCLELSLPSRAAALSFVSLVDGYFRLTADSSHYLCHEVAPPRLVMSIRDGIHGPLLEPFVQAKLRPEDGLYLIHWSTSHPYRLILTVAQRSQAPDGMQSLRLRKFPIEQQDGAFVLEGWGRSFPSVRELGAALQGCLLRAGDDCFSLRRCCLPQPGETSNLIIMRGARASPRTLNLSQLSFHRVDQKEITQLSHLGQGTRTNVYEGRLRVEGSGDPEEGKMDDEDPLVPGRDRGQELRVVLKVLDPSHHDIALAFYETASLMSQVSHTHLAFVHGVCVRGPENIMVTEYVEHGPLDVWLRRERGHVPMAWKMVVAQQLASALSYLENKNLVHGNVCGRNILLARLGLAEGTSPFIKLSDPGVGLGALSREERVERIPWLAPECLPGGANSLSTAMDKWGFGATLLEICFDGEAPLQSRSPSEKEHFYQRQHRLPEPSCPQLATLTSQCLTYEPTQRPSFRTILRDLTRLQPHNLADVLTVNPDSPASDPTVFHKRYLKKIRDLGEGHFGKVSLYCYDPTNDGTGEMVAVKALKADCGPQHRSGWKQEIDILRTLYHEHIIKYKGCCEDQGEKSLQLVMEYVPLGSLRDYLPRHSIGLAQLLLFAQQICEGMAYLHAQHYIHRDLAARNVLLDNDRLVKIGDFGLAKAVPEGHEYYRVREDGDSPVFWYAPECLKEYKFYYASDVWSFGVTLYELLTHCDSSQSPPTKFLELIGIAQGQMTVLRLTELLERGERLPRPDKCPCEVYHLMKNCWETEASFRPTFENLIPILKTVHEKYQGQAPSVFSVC
T4 sequence (P23458 whole entry): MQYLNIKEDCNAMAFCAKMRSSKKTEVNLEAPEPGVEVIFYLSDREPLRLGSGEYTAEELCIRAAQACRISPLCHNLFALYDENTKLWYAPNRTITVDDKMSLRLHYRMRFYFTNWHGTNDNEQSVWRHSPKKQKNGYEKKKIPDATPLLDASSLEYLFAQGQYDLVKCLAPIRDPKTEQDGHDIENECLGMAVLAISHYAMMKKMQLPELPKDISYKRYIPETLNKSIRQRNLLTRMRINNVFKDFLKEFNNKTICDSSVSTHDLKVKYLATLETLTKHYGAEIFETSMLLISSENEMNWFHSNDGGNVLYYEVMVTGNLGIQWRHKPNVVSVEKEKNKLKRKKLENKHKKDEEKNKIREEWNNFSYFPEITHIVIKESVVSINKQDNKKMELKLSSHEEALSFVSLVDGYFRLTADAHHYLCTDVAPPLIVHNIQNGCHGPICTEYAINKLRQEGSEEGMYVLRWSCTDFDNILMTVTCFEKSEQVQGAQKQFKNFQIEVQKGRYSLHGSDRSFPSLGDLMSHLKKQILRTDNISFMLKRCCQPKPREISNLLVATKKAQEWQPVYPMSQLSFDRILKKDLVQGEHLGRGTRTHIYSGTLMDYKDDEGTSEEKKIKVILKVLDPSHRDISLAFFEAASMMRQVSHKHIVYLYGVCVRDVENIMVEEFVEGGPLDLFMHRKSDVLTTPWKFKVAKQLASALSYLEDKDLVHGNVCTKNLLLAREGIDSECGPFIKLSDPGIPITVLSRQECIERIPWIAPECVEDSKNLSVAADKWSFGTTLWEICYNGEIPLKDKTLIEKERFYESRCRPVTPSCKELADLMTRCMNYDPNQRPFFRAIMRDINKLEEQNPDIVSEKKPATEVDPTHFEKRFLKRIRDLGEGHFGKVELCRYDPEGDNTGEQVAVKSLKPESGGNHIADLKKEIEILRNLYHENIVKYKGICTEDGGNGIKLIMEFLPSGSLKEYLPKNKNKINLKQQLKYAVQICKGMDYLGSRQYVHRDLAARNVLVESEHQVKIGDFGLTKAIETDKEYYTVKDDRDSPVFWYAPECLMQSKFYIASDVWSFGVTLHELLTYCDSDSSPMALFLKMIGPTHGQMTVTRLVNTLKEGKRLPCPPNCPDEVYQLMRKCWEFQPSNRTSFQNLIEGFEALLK
T1 sequence (P29597 whole entry P760L): as the sequence (P29597 whole entry) above, with P760L counted along it

Take `[2H]C([2H])([2H])NC(=O)c1cnc(NC(=O)C2CC2)cc1Nc1ccc2cnn(CC#N)c2c1OC` [Example 202, 4-((1-(Cyanomethyl)-7-methoxy-1H-indazol-6-yl)amino)-6-(cyclopropanecarboxamido)-N-(methyl-d3)nicotinamide]: the GI50 in data set [1] worked out at 45.7 nM. The IC50 is 33.3 nM in data set [2]; above 5000 nM in data set [4]; above 5000 nM in data set [5]; above 5000 nM in data set [6]; 147 nM in data set [7]. Moreover, in data set [3], the fraction unbound at 5 h is 0.113.
